Entries after “also recorded” stand apart in the source; their conditions may differ.
Assays:
[1] = tested on: SYO1 flank tumors; test: Flank tumor xenograft in nude mice; format: in vivo
Protocol: (§1) To determine the antitumor activity of Compound 1 in vivo, either Aska-SS cells (harboring the SS18-SSX1 fusion) or SYO1 cells (harboring the SS18-SSX2 fusion) were injected into the flanks of nude mice. When tumors became palpable, mice were treated with 25 mg/kg of Compound 1 or vehicle.
(§2) Flank tumors were harvested, sectioned, and stained with hematoxylin and eosin and analyzed with IHC for tumoricidal markers.

[2] = tested on: Aska-SS flank tumors; test: Flank tumor xenograft in nude mice; format: in vivo
Protocol: as §1, §2

[3] = tested on: 12273/99 cells; test: Colony-forming assay (crystal violet); format: cell-based, human; details: Compound 1 titration series
[4] = tested on: H2AK119ub; test: H2AK119ub immunoblotting; format: cell-based, human
[5] = tested on: SS18-SSX1 protein; test: Western blot for SS18-SSX fusion protein levels; format: cell-based, human
Protocol: shRNAs targeting SUMO2 were cloned into a tetracycline-inducible plasmid and expressed in HS-SYII cells. Small hairpin RNAs (shRNAs) for SUMO2 were cloned into the all-in-one-Tet vector and packaged into lentivirus using pMD and pPax2. A cell suspension containing about 300,000 HS-SY-II and SYO1 cells were seeded into six-well culture plates overnight for about 12-14 hours. Transfections were performed with Lipofectamine 2000 reagent. At about 48 hours after transfection, media was changed and puromycin selected for about 2 days. After selection, cells were subjected to a previously determined amount of doxycycline, about 4.5 μg/ml, for about 48 hours. Cells were harvested for qPCR quantification and western blot analysis.
The effect of Compound 1 was compared to the effect of SUMO2 knockdown by shRNA.

[6] = tested on: SYO1 cells; test: CellTiter-Glo viability, 2D and 3D cultures; format: cell-based, human; details: over 2, 3, and 4 days
Protocol: (§3) To investigate whether the reduction of proliferation by Compound 1 was due to apoptosis and necrosis in synovial sarcoma cell lines, flow cytometric analyses were performed with cells treated with Compound 1 and untreated cells stained with Annexin V-FITC apoptosis marker, as well as Propidium Iodide necrosis marker for cells in media containing Compound 1 and media only containing DMSO. The proliferation assay was performed using Cell Titer Glo Luminescent Cell Viability Assay (Promega). Cell numbers were optimized for 384-well plate for each cell line. SUMO2 inhibitors including Compound 1 were dissolved in DMSO and echo dotted onto a 384-well plate in varying concentrations, with the final concentration of DMSO at about 0.08% in each well. About 25 μL of cell suspension, a concentration of about 50,000 cells/mL were seeded in each well of a 384-well plate. […] Luminescence was recorded with a plate reader (BMG FLUOStar). The EC50 values were calculated by Graphpad Prism software. Apoptosis was quantified by flow cytometry using Annexin V-FITC kit from BD Biosciences. […] The samples were then analyzed by flow cytometry using Fortessa along with FlowJo analysis software. Cell lines analyzed were HS-SY-II (left) and SYO1 (right) (FIG. 3G). […]

[7] = tested on: SS18-SSX fusion; test: Spike-in normalized CUT&RUN of SS18-SSX chromatin occupancy; format: cell-based, human
Protocol: Subsequent studies sought to determine the mechanism behind Compound 1 treatment and the observed attenuation of SS18-SSX expression activity. Initial studies utilizing Cleavage Under Targets & Release Using Nuclease (CUT&RUN) focused on determining whether Compound 1 affects the chromatin occupancy of the SS18-SSX fusion protein. […] Since increased H2AK119ub deposition has been linked to the pathogenic activity of the SS18-SSX fusions, H2AK119 ubiquitination was assessed in Compound 1-treated cells.

[8] = tested on: HS-SY-II and SYO1 cells; test: Total RNA sequencing, Compound 1 vs DMSO; format: cell-based, human
Protocol: To comprehensively interrogate the transcriptomic changes occurring in synovial sarcoma cells, HS-SY-II and SYO1 cells were cultured in media containing DMSO and media containing Compound 1 and subjected to total RNA sequencing. HS-SY-II and SYO1 cells were contacted with either Compound 1 at concentrations of between about 25 nM and about 100 nM, or DMSO for 48 hours. The cell suspensions were pelleted, and RNA was extracted with varying concentrations. TRIzol Reagent was used to extract total RNA from SYO1, and HS-SY-II cell pellets, and strands were synthesized using Protoscript II (NEB) with poly A selection. qPCR was performed using TaqMan Gene Expression Master Mix and FAM probes for SUMO2, HPRT, and GAPDH. Paired-end (2×100 bp) sequencing was performed on the NovaSeq 6000 Sequencing System. Data Processing and QC was completed using FastQC and QC summarization was done by MultiQC. Mapping to human genome hg38 v84 was done using STAR sequence aligner, and expression was estimated using RSEM. DESeq2 was used for differential expression analysis, and IPA algorithm was used in evaluation of upstream pathway regulators.
The RNA-seq reads were analyzed for each sample to the human reference genome GRCh38 using STAR aligner. Expression estimation was conducted using RSEM followed by differential expression calling using DESeq2. For target genes of interest in both HS-SY-II and SYO1, a total of 960 differentially expressed target genes of interest (DEGs) were analyzed using […] (FIG. 4A).
Upregulation of target genes of interest activated by the chimeric SS18-SSX fusion protein in DMSO media and in media containing Compound 1 were mapped with size and […] (FDR) quantified, based on […] (NES) values (FIG. 4D). Expression of various target genes of interest, upregulation, and downregulation by SS18-SSX fusion genomes, were measured in contact with varying concentrations of Compound 1 (FIG. 4E). Heat maps were created mapping the various target genes of interest cultured in media containing only DMSO, compared to media containing Compound 1, for multiple samples (FIG. 4F-4G). Enrichment scores were calculated using gene set enrichment analysis for HS-SY-II cells in contact with DMSO and varying concentrations of Compound 1 for target genes of interest (FIG. 4H). Additional experiments comparing gene expression differences due to DMSO or Compound 1 on SYO-II and HS-SY-II cells were performed. Not only were SS18-SSX-regulated genes affected by Compound 1 treatment, but other genes also impacted included the HOX genes: HOXC6, HOXA10 as well as SRSF1 and TYMS. (FIG. 4I).

[9] = tested on: HS-SY-II cells; test: Colony-forming assay (crystal violet); format: cell-based, human; details: Compound 1 titration series
[10] = tested on: Aska-SS cells; test: CellTiter-Glo viability, 2D and 3D cultures; format: cell-based; details: over 2, 3, and 4 days
Protocol: as §3

[11] = biological target: T1, Sumo-Activating Enzyme 1 (SAE1) or Sumo-Activating Enzyme 2 (SAE2) (Homo sapiens, UniProt Q9UBE0+Q9UBT2); test: Interruption of the SUMO cycle (SAE inhibition); details: E1 Ligase Activation step
T1 sequence (Q9UBE0 1-346): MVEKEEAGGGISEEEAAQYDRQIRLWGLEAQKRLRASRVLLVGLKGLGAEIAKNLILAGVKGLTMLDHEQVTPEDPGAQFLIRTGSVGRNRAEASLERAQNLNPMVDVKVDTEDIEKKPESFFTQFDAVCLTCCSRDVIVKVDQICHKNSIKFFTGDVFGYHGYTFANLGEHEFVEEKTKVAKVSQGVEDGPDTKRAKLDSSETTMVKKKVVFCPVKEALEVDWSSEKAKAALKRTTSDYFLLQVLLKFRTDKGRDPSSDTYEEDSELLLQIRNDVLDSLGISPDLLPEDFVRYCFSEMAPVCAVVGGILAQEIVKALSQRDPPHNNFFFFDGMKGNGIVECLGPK
T1 sequence (Q9UBT2 1-640): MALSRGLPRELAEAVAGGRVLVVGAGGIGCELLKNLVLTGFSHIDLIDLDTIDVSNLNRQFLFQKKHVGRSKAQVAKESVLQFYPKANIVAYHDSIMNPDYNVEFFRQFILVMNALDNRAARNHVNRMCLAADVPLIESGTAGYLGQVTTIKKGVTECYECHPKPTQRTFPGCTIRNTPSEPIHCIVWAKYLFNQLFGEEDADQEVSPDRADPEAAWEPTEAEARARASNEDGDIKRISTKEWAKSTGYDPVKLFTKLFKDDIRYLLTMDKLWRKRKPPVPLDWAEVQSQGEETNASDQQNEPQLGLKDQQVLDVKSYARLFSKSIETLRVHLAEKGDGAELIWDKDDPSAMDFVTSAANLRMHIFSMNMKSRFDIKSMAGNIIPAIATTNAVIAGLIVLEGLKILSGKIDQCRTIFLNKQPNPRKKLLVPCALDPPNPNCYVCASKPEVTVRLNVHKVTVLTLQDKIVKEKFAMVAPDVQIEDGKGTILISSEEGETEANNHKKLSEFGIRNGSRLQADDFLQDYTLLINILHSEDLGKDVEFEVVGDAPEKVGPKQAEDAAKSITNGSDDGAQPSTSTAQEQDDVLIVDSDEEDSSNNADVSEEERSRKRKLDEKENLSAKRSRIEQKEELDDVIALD

[12] = tested on: H2AK119ub; test: ChIP-sequencing of H2AK119ub; format: cell-based, human
[13] = tested on: SYO1 cells; test: Colony-forming assay (crystal violet); format: cell-based, human; details: Compound 1 titration series
Protocol: Further testing of Compound 1 was performed on 2D and 3D cultures for SYO1 and Aska-SS cell lines to determine whether these culture conditions resist Compound 1 treatment.

[14] = 25 mg/kg, 3 intraperitoneal injections a week for 5 weeks, vs vehicle
[15] = Ki-67 staining of tumor sections, vs vehicle-treated tumors
[16] = harvested flank tumors, vs vehicle-treated tumors

- SS18-SSX2 fusion genomic occupancy ([7]; Compound 1-treated compared to vehicle-treated arms): substantial decrease
- fusion-binding signal at synovial sarcoma target genes (meta-analysis) ([7]; maximum signal centered around the transcription start site): reduction in the fusion binding
SMILES: Cc1sc(C(=O)c2cncnc2N[C@@H]2C[C@H](COS(N)(=O)=O)[C@@H](O)C2)cc1[C@@H]1NCCc2ccc(Cl)cc21 [Compound 1]
- tumor growth [1, 14]: reduction of tumor growth
- tumor volumes [1, 14]: significantly reduced
- tumor weights [1, 14]: significantly reduced
- decrease in Ki67 positivity [1, 15]: ~60%
- number of cells per unit area (tumor cellularity, hematoxylin and eosin) [1, 16]: marked reduction
- tumor growth [2, 14]: reduction of tumor growth
- tumor volumes [2, 14]: significantly reduced
- tumor weights [2, 14]: significantly reduced
- decrease in Ki67 positivity [2, 15]: ~60%
- number of cells per unit area (tumor cellularity, hematoxylin and eosin) [2, 16]: marked reduction
- colony formation [3]: dramatic and dose-dependent reduction in colony formation
- H2AK119ub by immunoblotting ([4]; 1273/99 cell line): marked reduction
- H2AK119ub by immunoblotting ([4]; Aska cell line): marked reduction
- H2AK119ub by immunoblotting ([4]; HS-SY-II cell line): marked reduction
- H2AK119ub by immunoblotting ([4]; SYO1 cell line): marked reduction
- levels of SS18-SSX1 protein ([5]; HS-SY-II cell line): reduction in the levels
- levels of SS18-SSX1 fusion ([5]; SYO1 cell lines): reduction in the levels
- viability as measured by CellTiter-Glo [6]: progressive and marked decrease in viability; also recorded: affected in a Compound 1 concentration-dependent manner
- SS18-SSX fusion occupancy at SS18-SSX-repressed target GADD45B [7]: diminished SS18-SSX fusion occupancy; also recorded: decrease of SS18-SSX occupation of this gene
- SS18-SSX occupancy at SS18-SSX-activated targets HOXA10 and SOX8 [7]: lost SS18-SSX occupancy; also recorded: decrease of SS18-SSX occupation
- reduction in genome-wide chromatin binding signal of the SS18-SSX fusion (FRiP) ([7]; SYO1 cells, compared to DMSO treated cells): 1.87 fold
- expression of GADD45B [8]: increased expression (de-repression); also recorded: increase in its expression
- expression of HOXA10 and SOX8 [8]: reduced expression
- expression of key cancer-associated genes upregulated by the SySa fusion (CDX2, HOXA10, SUZ12, TYMS, AURKB, HOXC10, SMC2) ([8]; HS-SY-II and SYO1, vs DMSO): downregulated
- expression of HOXC6, HOXA10, SRSF1 and TYMS ([8]; SYO1 and HS-SY-II cells, vs DMSO): impacted
- expression of SS18-SSX-regulated genes ([8]; SYO-II and HS-SY-II cells, vs DMSO): affected
- colony formation [9]: dramatic and dose-dependent reduction in colony formation
- viability as measured by CellTiter-Glo [10]: progressive and marked decrease in viability; also recorded: affected in a Compound 1 concentration-dependent manner
- interruption of the SUMO cycle [11]: interrupt the SUMO cycle at the E1 Ligase Activation step
- H2AK119ub at GADD45B [12]: reduced H2AK119ub
- reduction of genome-wide H2AK119ub levels (FRiP) ([12]; SYO1 cells, versus DMSO-treated): 1.53 fold
- H2AK119ub genome-wide ([12]; compared to DMSO-treated cells): substantial reduction
- colony formation [13]: dramatic and dose-dependent reduction in colony formation
